Reference: US9328083B2, “2-aminated methylene or 2-esterified methylene tanshinone derivatives, and preparation method and application thereof” (HANGZHOU BENSHENG PHARMACEUTICAL CO., LTD., priority 2011, dated 2016)
Converted amounts (≈) assume the structure as drawn.

How the values were obtained:
[1] = system: Jurkat (acute lymphoblastic leukemia, ALL); experiment: MTT growth inhibition of leukemia cells, 72 h; type: cell-based, human; details: Homo sapiens, 72 h; for IC50: read-out: IC50; for IC90: read-out: IC90
Text: (§1) Leukemia cell lines: leukemia cell lines: K562/adr (drug-resistant, chronic myeloid leukemia, CML), NB4 (acute promyelocytic leukemia, AML), Kasumi-1 (acute myeloid leukemia M2 type, AML-M2), and Jurkat (acute lymphoblastic leukemia, ALL), all of which are donated by Cancer Research Institute of Zhejiang University, China; and H9 (acute lymphoblastic leukemia, ALL), which is purchased from China Center for Type Culture Collection (CCTCC).
(§2) The standard sample of tanshinone I (TA) and the 2-aminated methylene or 2-esterified methylene tanshinone I derivatives of the present invention are sufficiently dissolved with dimethylsulfoxide to produce a stock solution of 10 mg/mL, which is refrigerated at 4° C. and stored in dark, and is diluted with a cell culture medium to the desired concentration prior to experimentation.
(§3) Obtaining 6000 well-growing leukemia cells and inoculating them into wells of a 96-well cell culture plate. The culture medium is the RPMI-1640 cell culture medium containing 10% fetal bovine serum. After adding on the second day the 2-aminated methylene or 2-esterified methylene tanshinone I derivatives of different concentrations and mixing uniformly, placing the plate in a carbon dioxide cell incubator (5% CO2) at 37° C. and incubated for 72 hours. Then the viable cell concentration is determined by MTT method.

[2] = system: K562/adr (drug-resistant, chronic myeloid leukemia, CML); experiment: MTT growth inhibition of leukemia cells, 72 h; type: cell-based, human; details: Homo sapiens, K562/Adr; for IC50: read-out: IC50; for IC90: read-out: IC90
Text: as §1, §2, §3

[3] = system: H9 (acute lymphoblastic leukemia, ALL); experiment: MTT growth inhibition of leukemia cells, 72 h; type: cell-based, human; details: Homo sapiens, H9, 72 h; for IC50: read-out: IC50; for IC90: read-out: IC90
Text: as §1, §2, §3

[4] = system: NB4 (acute promyelocytic leukemia, AML); experiment: MTT growth inhibition of leukemia cells, 72 h; type: cell-based, human; details: Homo sapiens, NB4, 72 h; for IC50: read-out: IC50; for IC90: read-out: IC90
Text: as §1, §2, §3

[5] = system: Kasumi-1 (acute myeloid leukemia M2 type, AML-M2); experiment: MTT growth inhibition of leukemia cells, 72 h; type: cell-based, human; details: Homo sapiens, Kasumi-1, 72 h; for IC50: read-out: IC50; for IC90: read-out: IC90
Text: as §1, §2, §3

[6] = system: RPMI8226 (multiple myeloma); experiment: MTT growth inhibition of multiple myeloma cells, 72 h; type: cell-based, human; details: Homo sapiens, RPMI 8226, 72 h; for IC50: read-out: IC50; for IC90: read-out: IC90
Protocol: Myeloma cell lines: RPMI8226 (multiple myeloma), purchased from Fuxiang Bio-tech Co. Ltd., Shanghai, China.
as §2
as §3, with “myeloma” for “leukemia”, “cells as above” for “cells”, “1640” for “RPMI-1640”, “adding” for “adding on the second day”

[7] = system: Hela (human cervical cancer cell); experiment: MTT growth inhibition of human solid tumor cells, 72 h; type: cell-based; details: Homo sapiens, HeLa, 72 h; for IC50: read-out: IC50; for IC90: read-out: IC90
Protocol: (§4) Hep-2 (laryngeal carcinoma), A549 (human lung cancer), CaES-17 (esophageal cancer cell), PC-3 (prostate cancer), CNE (nasopharyngeal carcinoma cell), and SK-OV-3 (ovarian cancer cell), all of which are purchased from China Center For Type Culture Collection; RKO (human colon adenocarcinoma cell), MGC 803 (human gastric cancer cell), MG63 (osteosarcoma) and U87 MG (malignant glioma cell), all of which are purchased from Fuxiang Bio-tech Co. Ltd., Shanghai, China; PANC-1 (pancreatic cancer), Hep G2 (human liver cancer cell), Becap37 (human breast cancer cell) and Hela (human cervical cancer cell), all of which are donated by Cancer Research Institute of Zhejiang University, China.
as §2
(§5) Obtaining 4000 well-growing human solid tumor cells and inoculating them into wells of a 96-well cell culture plate. The culture medium is DMEM High Glucose cell culture medium containing 10% fetal bovine serum. The plate is placed in a carbon dioxide cell incubator (5% CO2) at 37° C. and incubated for 24 hours. After adding the 2-aminated methylene or 2-esterified methylene tanshinone I derivatives of different concentrations and mixing uniformly, the plate is placed in a carbon dioxide cell incubator (5% CO2) at 37° C. and incubated for 72 hours. Then the viable cell concentration is determined by the MTT method.

[8] = system: SK-OV-3 (ovarian cancer cell); experiment: as above; type: cell-based; details: Homo sapiens, SK-OV-3, 72 h; for IC50: read-out: IC50; for IC90: read-out: IC90
Protocol: as §4, §2, §5

[9] = system: Becap37 (human breast cancer cell); experiment: as above; type: cell-based; details: Homo sapiens, Becap-37, 72 h; for IC50: read-out: IC50; for IC90: read-out: IC90
Protocol: as §4, §2, §5

[10] = system: U87 MG (malignant glioma cell); experiment: as above; type: cell-based; details: Homo sapiens, U-87 MG, U87-MG, 72 h; for IC50: read-out: IC50; for IC90: read-out: IC90
Protocol: as §4, §2, §5

[11] = system: CaES-17 (esophageal cancer cell); experiment: as above; type: cell-based; details: Homo sapiens, CaEs17, CaEs-17, 72 h; for IC50: read-out: IC50; for IC90: read-out: IC90
Protocol: as §4, §2, §5

[12] = system: RKO (human colon adenocarcinoma cell); experiment: as above; type: cell-based; details: Homo sapiens; for IC50: read-out: IC50; for IC90: read-out: IC90
Protocol: as §4, §2, §5

A549 (human lung cancer) = experiment: as above; type: cell-based; details: Homo sapiens, A549, 72 h; for IC50: read-out: IC50; for IC90: read-out: IC90
Protocol: as §4, §2, §5

MG63 (osteosarcoma) = experiment: as above; type: cell-based; details: Homo sapiens, MG-63, 72 h; for IC50: read-out: IC50; for IC90: read-out: IC90
Protocol: as §4, §2, §5

PC-3 (prostate cancer) = experiment: as above; type: cell-based; details: Homo sapiens, PC-3, 72 h; for IC50: read-out: IC50; for IC90: read-out: IC90
Protocol: as §4, §2, §5

[13] = system: CNE (nasopharyngeal carcinoma cell); experiment: as above; type: cell-based; details: Homo sapiens; for IC50: read-out: IC50; for IC90: read-out: IC90
Protocol: as §4, §2, §5

[14] = system: Hep-2 (laryngeal carcinoma); experiment: as above; type: cell-based; details: Homo sapiens, HEp-2, 72 h; for IC50: read-out: IC50; for IC90: read-out: IC90
Protocol: as §4, §2, §5

[15] = system: MGC 803 (human gastric cancer cell); experiment: as above; type: cell-based; details: Homo sapiens, MGC-803, 72 h; for IC50: read-out: IC50; for IC90: read-out: IC90
Protocol: as §4, §2, §5

[16] = system: Hep G2 (human liver cancer cell); experiment: as above; type: cell-based; details: Homo sapiens, HepG2, Hep G2, 72 h; for IC50: read-out: IC50; for IC90: read-out: IC90
Protocol: as §4, §2, §5

[17] = system: PANC-1 (pancreatic cancer); experiment: as above; type: cell-based; details: Homo sapiens, PANC-1, 72 h; for IC50: read-out: IC50; for IC90: read-out: IC90
Protocol: as §4, §2, §5

| IC50 [1] [µg/mL] | IC90 [1] [µg/mL] | IC50 [2] [µg/mL] | IC90 [2] [µg/mL] | IC50 [3] [µg/mL] | IC90 [3] [µg/mL] | IC50 [4] [µg/mL] | IC90 [4] [µg/mL] | IC50 [5] [µg/mL] | IC90 [5] [µg/mL] | IC50 [6] [µg/mL] | IC90 [6] [µg/mL] | IC50 [7] [µg/mL] | IC90 [7] [µg/mL] | IC50 [8] [µg/mL] | IC90 [8] [µg/mL] | IC50 [9] [µg/mL] | IC90 [9] [µg/mL] | IC50 [10] [µg/mL] | IC90 [10] [µg/mL] | Compound | other results |
| --- | --- | --- | --- | --- | --- | --- | --- | --- | --- | --- | --- | --- | --- | --- | --- | --- | --- | --- | --- | --- | --- |
| 3 (≈ 6.67 µM) | 7.56 (≈ 16.8 µM) | 1.26 (≈ 2.8 µM) | 4.6 (≈ 10.2 µM) | 3.75 (≈ 8.34 µM) | 15.3 (≈ 34.1 µM) | 3.73 (≈ 8.3 µM) | 10.4 (≈ 23.1 µM) | 1.48 (≈ 3.29 µM) | 3.89 (≈ 8.65 µM) | 7.76 (≈ 17.3 µM) | 16 (≈ 35.6 µM) | 8.77 (≈ 19.5 µM) | > 16 | > 16 | > 16 | 16 (≈ 35.6 µM) | > 16 | 15.8 (≈ 35.2 µM) | > 16 | Cc1c(CN(C)CCOC(=O)OC(C)C)oc2c1C(=O)C(=O)c1c-2ccc2c(C)cccc12 [BS-TA-63] | IC50 [11]: > 16 µg/mL; IC90 [11]: > 16 µg/mL; IC50 [12]: 1.86 µg/mL (≈ 4.14 µM); IC90 [12]: 17.6 µg/mL (≈ 39.2 µM); IC50 (A549 (human lung cancer)): 6.5 µg/mL (≈ 14.5 µM); IC90 (A549 (human lung cancer)): 23.4 µg/mL (≈ 52.1 µM); IC50 (MG63 (osteosarcoma)): 14.1 µg/mL (≈ 31.4 µM); IC90 (MG63 (osteosarcoma)): > 16 µg/mL; IC50 (PC-3 (prostate cancer)): 5.83 µg/mL (≈ 13 µM); IC90 (PC-3 (prostate cancer)): 18.9 µg/mL (≈ 42 µM); IC50 [13]: > 16 µg/mL; IC90 [13]: > 16 µg/mL; IC50 [14]: 3.39 µg/mL (≈ 7.54 µM); IC90 [14]: 22.4 µg/mL (≈ 49.9 µM); IC50 [15]: 14.9 µg/mL (≈ 33.1 µM); IC90 [15]: > 16 µg/mL; IC50 [16]: 15.7 µg/mL (≈ 34.8 µM); IC90 [16]: > 16 µg/mL; IC50 [17]: 4.92 µg/mL (≈ 10.9 µM); IC90 [17]: 20.9 µg/mL (≈ 46.4 µM) |
| 0.54 (≈ 1.14 µM) | 1.92 (≈ 4.05 µM) | 0.84 (≈ 1.77 µM) | 2.82 (≈ 5.94 µM) | 0.59 (≈ 1.24 µM) | 1.63 (≈ 3.43 µM) | 0.25 (≈ 0.527 µM) | 0.87 (≈ 1.83 µM) | 0.33 (≈ 0.695 µM) | 0.7 (≈ 1.48 µM) | 0.4 (≈ 0.843 µM) | 0.92 (≈ 1.94 µM) | 2.16 (≈ 4.55 µM) | 3.9 (≈ 8.22 µM) | 3.55 (≈ 7.48 µM) | 7.76 (≈ 16.4 µM) | 0.77 (≈ 1.62 µM) | 1.67 (≈ 3.52 µM) | 1.16 (≈ 2.44 µM) | 3.72 (≈ 7.84 µM) | Cc1c(CN(C)CCOC(=O)C2CCNCC2)oc2c1C(=O)C(=O)c1c-2ccc2c(C)cccc12 [BS-TA-64] | IC50 [11]: 0.88 µg/mL (≈ 1.85 µM); IC90 [11]: 1.85 µg/mL (≈ 3.9 µM); IC50 [12]: 0.29 µg/mL (≈ 0.611 µM); IC90 [12]: 5.56 µg/mL (≈ 11.7 µM); IC50 (A549 (human lung cancer)): 1.4 µg/mL (≈ 2.95 µM); IC90 (A549 (human lung cancer)): 4.46 µg/mL (≈ 9.4 µM); IC50 (MG63 (osteosarcoma)): 0.82 µg/mL (≈ 1.73 µM); IC90 (MG63 (osteosarcoma)): 2.16 µg/mL (≈ 4.55 µM); IC50 (PC-3 (prostate cancer)): 1.8 µg/mL (≈ 3.79 µM); IC90 (PC-3 (prostate cancer)): 4.15 µg/mL (≈ 8.74 µM); IC50 [13]: 1.8 µg/mL (≈ 3.79 µM); IC90 [13]: 3.8 µg/mL (≈ 8.01 µM); IC50 [14]: 1.67 µg/mL (≈ 3.52 µM); IC90 [14]: 3.65 µg/mL (≈ 7.69 µM); IC50 [15]: 0.85 µg/mL (≈ 1.79 µM); IC90 [15]: 3.24 µg/mL (≈ 6.83 µM); IC50 [16]: 1.31 µg/mL (≈ 2.76 µM); IC90 [16]: 3.66 µg/mL (≈ 7.71 µM); IC50 [17]: 0.71 µg/mL (≈ 1.5 µM); IC90 [17]: 5.07 µg/mL (≈ 10.7 µM) |
